Experimental data taken from PubChem BioAssay AID1117359 (Southern Research Institute, 2015).

Tested on: THP-1 viability, CellTiter-Glo luminescence, 72 h
Assay: THP-1 cell cytotoxicity, dose response, cytotoxicity control for Vif-APOBEC3G degradation inhibitor project, THP-1 cells (AID 1117359)

| Structure (SMILES) | CC50 |
| --- | --- |
| CCN=c1scc(C)n1/N=C/c1ccc(O)c(O)c1O | 19.9 µM |
| CSc1nc(N(CCO)CCO)c2sc3nc(-c4ccco4)c4c(c3c2n1)CCC4 | 19.8 µM |
| CCOc1cc(CNc2ccc(O)cc2)ccc1OCc1ccc(Cl)cc1Cl | 8.81 µM |
| CCOC(=O)C(C(=O)OCC)c1cc(Br)c2noc3c2c1C(=O)c1ccccc1-3 | 9.78 µM |
| O=[N+]([O-])c1c(NCCO)cc(Sc2nc3ccccc3s2)c2nonc12 | 17.9 µM |
| Oc1ccc(/C=N/NP(=S)(c2ccccc2)c2ccccc2)c(O)c1O | 38.3 µM |
| COC(C(=O)C(O)C(C)O)C1Cc2cc3cc(OC4CC(OC5CC(O)C(O)C(C)O5)C(O)C(C)O4)c(C)c(O)c3c(O)c2C(=O)C1OC1CC(OC2CC(OC3CC(O)C(OC)C(C)O3)C(O)C(C)O2)C(O)C(C)O1 (stereo not drawn) | < 0.08 µM |
| Oc1ccc(N=Cc2ccc(O)c(O)c2)cc1 | 13 µM |
